Laboratory results from US20100160324A1, “PYRAZOLE DERIVATIVES AS THAT MODULATE THE ACTIVITY OF CDK, GSK AND AURORA KINASES” (ASTEX THERAPEUTICS LIMITED, priority 2004, published 2010).

Tests used:
[1] = system: malignant cells from B-cell chronic lymphocytic leukemia (B-CLL); details: in vitro; cited from earlier work
[2] = system: treatment-refractory primary Acute Myelogenous Leukemia (AML) cells from patients; details: cited from earlier work
[3] = target: Activated CDK2/CyclinA (Homo sapiens, UniProt P24941); experiment: Activated CDK2/CyclinA kinase inhibitory activity assay; assay type: biochemical; details: read-out: IC50 against CDK2 activity
Protocol: Measurement of Activated CDK2/CyclinA Kinase Inhibitory Activity Assay (IC50)
Compounds of the invention were tested for kinase inhibitory activity using the following protocol.
Activated CDK2/CyclinA (Brown et al, Nat. Cell Biol., 1, pp 438-443, 1999; Lowe, E. D., et al Biochemistry, 41, pp 15625-15634, 2002) is diluted to 125 pM in 2.5× strength assay buffer (50 mM MOPS pH 7.2, 62.5 mM β-glycerophosphate, 12.5 mM EDTA, 37.5 mM MgCl2, […], 2.5 mM DTT, 2.5 mM sodium orthovanadate, 0.25 mg/ml bovine serum albumin), and 10 μl mixed with 10 μl of histone substrate mix (60 μl bovine histone H1 (Upstate Biotechnology, 5 mg/ml), 940 μl H2O, 35μ Ci γ^33P-ATP) and added to 96 well plates along with 5 μ of various dilutions of the test compound in DMSO (up to 2.5%). The reaction is allowed to proceed for 2 to 4 hours before being stopped with an excess of ortho-phosphoric acid (5 μl at 2%).
γ^33P-ATP which remains unincorporated into the histone H1 is separated from phosphorylated histone H1 on a Millipore MAPH filter plate. The wells of the MAPH plate are wetted with 0.5% orthophosphoric acid, and then the results of the reaction are filtered with a Millipore vacuum filtration unit through the wells. […] Once the filters have dried, 20 μl of Microscint 20 scintillant is added, and then counted on a Packard Topcount for 30 seconds. […]

[4] = target: T1, CDK1/CyclinB (Homo sapiens, UniProt P06493); experiment: Activated CDK1/CyclinB activity assay; assay type: biochemical; details: read-out: IC50 against CDK1 activity
T1 construct: purchased Upstate Discovery
T1 sequence (P06493 whole entry): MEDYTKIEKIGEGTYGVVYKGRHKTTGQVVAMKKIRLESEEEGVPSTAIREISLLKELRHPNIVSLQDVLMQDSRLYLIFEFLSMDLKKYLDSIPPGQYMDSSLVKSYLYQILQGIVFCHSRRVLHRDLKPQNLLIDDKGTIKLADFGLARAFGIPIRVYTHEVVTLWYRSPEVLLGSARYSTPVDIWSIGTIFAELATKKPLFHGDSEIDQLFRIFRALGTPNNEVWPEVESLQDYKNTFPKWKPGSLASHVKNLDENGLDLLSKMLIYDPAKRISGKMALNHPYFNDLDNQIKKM
T1 sequence (P14635 whole entry partner): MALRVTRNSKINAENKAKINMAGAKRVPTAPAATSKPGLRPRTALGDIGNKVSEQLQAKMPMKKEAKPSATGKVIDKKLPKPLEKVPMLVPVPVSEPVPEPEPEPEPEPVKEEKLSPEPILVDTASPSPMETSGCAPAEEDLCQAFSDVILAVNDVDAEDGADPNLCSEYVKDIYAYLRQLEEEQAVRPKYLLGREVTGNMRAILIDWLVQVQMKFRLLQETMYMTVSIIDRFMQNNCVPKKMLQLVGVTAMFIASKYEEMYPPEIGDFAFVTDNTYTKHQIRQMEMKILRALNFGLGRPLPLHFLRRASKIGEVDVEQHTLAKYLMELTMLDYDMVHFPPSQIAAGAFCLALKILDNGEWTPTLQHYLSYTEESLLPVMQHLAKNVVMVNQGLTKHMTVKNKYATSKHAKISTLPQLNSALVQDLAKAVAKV
Protocol: Measurement of Activated CDK1/Cycling Activity Assay (IC50)
CDK1/CyclinB assay is identical to the CDK2/CyclinA above except that CDK1/CyclinB (Upstate Discovery) is used and the enzyme is diluted to 6.25 nM.

## CC[C@H](CO)Nc1nc(NCc2ccccc2)c2ncn(C(C)C)c2n1 [CYC 202]
[1]
  apoptosis of malignant B-CLL cells: induce in vitro apoptosis

## CN1CC[C@H](c2c(O)cc(O)c3c(=O)cc(-c4ccccc4Cl)oc23)[C@H](O)C1 [Flavopiridol]
[1]
  apoptosis of malignant B-CLL cells: induce in vitro apoptosis

## Cc1cc(Nc2cc(N3CCN(C)CC3)nc(Sc3ccc(NC(=O)C4CC4)cc3)n2)n[nH]1 [VX-680]
[2]
  killing of treatment-refractory primary AML cells: potently killed

## O=C(Nc1c[nH]nc1-c1cccnc1)c1c(F)cccc1F [Example 1, 2,6-difluoro-N-(3-pyridin-3-yl-1H-pyrazol-4-yl)-benzamide]
[3]
  IC50: < 1 µM
[4]
  IC50: < 1 µM
